Results on one molecule are retold here after patent publication US6967207B2, “Preventive or therapeutic agents for gastric or esophageal regurgitation” (Mitsubishi Pharma Corporation, priority 2000, dated 2005).

The subject of test [1] is fundic pouch dog. Description: Suppressing action on gastric acid secretion (tetragastrin stimulation) in fundic pouch dog. In kind it is in vivo. To be noted: for Amount of gastric juice secretion: tetragastrin stimulation 2 μg/kg/hr, control 40.1 ± 3.9, mean ± standard error for 6 samples. As to the method: (§1) An effect on gastric acid secretion by stimulation under awakening was studied by using (fundic pouch dog). For preparation of the fundic pouch dog, a mongrel dog after starvation overnight was subjected to sterile ventrotomy under anesthesia using sodium pentobarbital (30 mg/kg, i.v.), and a fistula was attached to a part of the corpus ventriculi. After recovery period for two weeks, the dog was fixed to the Pavlov's stand, and gastric juice was collected every 15 minutes for 4 hours under histamine stimulation (0.2 mg/kg/hr). A volume of each collected gastric juice was recorded, and the juice was titrated with 0.01N NaOH using pH automatic measuring apparatus (Radiometer Copenhagen). The test compound, encapsulated in a gelatin capsule, was orally administered one hour before histamine administration.
Experiment was conducted in a similar manner as Example 1 except that the stimulating agent was replaced with tetragastrin(2 μg/kg/hr).

For test [2], the system named is fundic pouch dog. As to the kind of experiment: Suppressing action on gastric acid secretion (histamine stimulation) in fundic pouch dog. In kind it is in vivo. To be noted: for Amount of gastric juice secretion: histamine stimulation 0.2 mg/kg/hr, control 116.1 ± 12.3, mean ± standard error for 6 samples. As to the method:
as §1

With `O=C(N[C@H]1CN2CCC1CC2)c1cnc2ccsc2c1O` [Test compound, R-(−)-N-(1-azabicyclo[2.2.2]oct-3-yl)-7-hydroxythieno[3,2-b]-pyridine-6-carboxamide], the “Amount of gastric juice secretion” value in the test with fundic pouch dog [1] (10 μg/kg oral) is listed as 26.7 ± 7.8 mEq/4 hr; in the test with fundic pouch dog [1] (30 μg/kg oral), 12.9 ± 5.3 mEq/4 hr; with fundic pouch dog [2] (3 μg/kg oral (gelatin capsule) one hour before histamine), 76.8 ± 7.4 mEq/4 hr; with fundic pouch dog [2] (10 μg/kg oral (gelatin capsule) one hour before histamine), 61.9 ± 5.5 mEq/4 hr. Moreover, the “secretion of gastric juice by tetragastrin stimulation (result in words)” value in the test with fundic pouch dog [1] (tetragastrin stimulation, fundic pouch dog) is listed as “suppressed”. In addition, in the test with fundic pouch dog [2] (histamine stimulation, fundic pouch dog), the “secretion of gastric juice by histamine stimulation (result in words)” value is “suppressed”.
